For this assay, the system named is human promonocytic lymphoma cells (U937). Briefly: Microculture indicator system (MIS), MTT growth inhibition assay with bivariate serial dilutions. Particulars: for combined results ratio, K252a only / Combined results ratio / combined results ratio, Cisplatin only: U937; for Potentiation of DNA damage by STSP as RA: U937, concentrations less than IC40, STSP as the TCI. It counts as cell-based. How it is done: Microcultures of human promonocytic lymphoma cells (U937) (“the U937 cells”) originally obtained from the American Type Culture Collection (CRL 1593) and later grown by Dr. K. Zoon at the FDA in Bethesda, Md. were set up in a multiwell plate with serial two-fold dilutions of dThd in tissue culture growth medium (RPMI 1640 plus 10% Nurserum and antibiotics). The volume of medium per well was 100 μl and the cell number per well was about 1×10^5. The plate was incubated at 37° C. for 24 hr.
A dye, 3-[4,5-dimethylthiazol-2-yl]-2,5-diphenyl-tetrazolium bromide (MTT), was used as a chromogenic indicator of the metabolically active cell mass. Viable cells metabolize the dye and accumulate a reduced formazan product (blue color) which is solubilized for colorimetry. Mossman T, J. Immunol. Methods 5:55-63 (1983); Li L and Lau B H S, In Vitro Cell Dev. Biol. 29A:531-536 (1993). The MTT assay has been established as useful for measuring either growth inhibition or population killing. Plowman, supra. The MTT method is ideal for cells tested in suspension growth, and can also be used for some cells growing in monolayers. […] Alley, supra; Hofs, supra; Wilson J K et al., Br. J. Cancer 62:189-94 (1990); Plowman, supra.
Thirty μl of 0.5% MTT in phosphate buffered saline was added to each microculture well at the appropriate time. After incubation at 37° C. for 3 hr, 120 μl of an aqueous solution of 10 % SDS with 0.01 N HCl was added to release and dissolve formazan product. This was accomplished by overnight incubation of the plate at 37° C. After careful mixing of the microwell contents by placing the plates on an orbital shaker for 5 minutes the absorbencies were quantitated by spectrophotometry at 570 nm with a Ceres UV 900 HDI microwell plate reader (from Biotek Instruments Inc, Winooski, Vt. 05404-0998). Absorbance data was normalized to a blank well containing all reagents without cells and was collected semi-automatically.
Flat-bottom 96-well plates of tissue culture quality (Corning or Costar) were set up with two-fold serial dilutions of each agent to be tested, e.g., the RA and TCI, using a multichannel pipettor with adjustable volume, e.g., Costar or Rainin, to perform serial mixing. This set-up is diagrammed in FIG. 12. […] In each plate, a total of 59 wells then contained bivariate agent combinations, the bivariate serial dilutions.
Agents were serially diluted by serial mixing in two separate plates or series of wells, and then were combined prior to addition of a fixed volume and density of the U937 cells in a suspension calculated to deliver about 1×10^5 cells per well.
Cells were added after serial dilutions of the dThd had been dispensed. Cells were dispensed at about 10×10^4 cells per microwell to provide optimal sensitivity of detection of cell damage in subsequent calorimetric assays. […] The final volume of medium was 100 μl/well. The plates were further incubated at 37° C. for a total duration of 18-24 h. The dye MTT was used as a chromogenic indicator of the residual and metabolically active cell mass. (Described in Example 1).
In this MTT assay, normalized absorbance data was collected semi-automatically from each microculture well with a Ceres UV 900 HD1 plate reader, from Biotek Instruments Inc., Winooski, V T 05404-0998, stored in an EIA file under the Ceres 900 program, transferred in comma delimited format to a floppy diskette, and imported into a spread sheet program (Borland Quattro Pro) for data manipulations.
For orientation: Formazan colour is commonly taken as a measure of viable cells.

SMILES strings stand for the structures.

Take `COC(=O)[C@@]1(O)C[C@H]2O[C@]1(C)n1c3ccccc3c3c4c(c5c6ccccc6n2c5c31)C(=O)NC4` [K252a]: the “combined results ratio, K252a only” value (K252a only 15 H, K252a uM by row: r7 2, r8 1, r9 0.5, r10 0.25, r11 0.13, r12 0.06) turned out to be 1.0 and the “combined results ratio, K252a only” value (K252a only 20 H, K252a nM by row: r7 625, r8 313, r9 156, r10 78.1, r11 39.1, r12 19.5) is given as 1.0.
Take `CN(Cc1cnc2nc(N)nc(N)c2n1)c1ccc(C(=O)N[C@@H](CCC(=O)O)C(=O)O)cc1` [MTX, methotrexate]: the “Potentiation of DNA damage by STSP as RA” value was “proved successful in potentiating DNA damage by STSP”. Where the note is “Homo sapiens, U-937, U937, total 20 H, STSP 16 H, MTX 4 H, MTX 4 nM, STSP nM: 200, 100, 50, 25, 12.5, 6.25, 0”, the inhibition (usually how much of the control response was suppressed) at 0.004 µM was 20%. For the same compound, the inhibition at 0.008 µM (Homo sapiens, U-937, U937, total 20 H, STSP 16 H, MTX 4 H, MTX 8 nM, STSP nM: 200, 100, 50, 25, 12.5, 6.25, 0) was determined as 38%. For the same compound, the inhibition at […] (Homo sapiens, U-937, U937, total 20 H, STSP 16 H, MTX 4 H, MTX 16 nM, STSP nM: 200, 100, 50, 25, 12.5, 6.25, 0) came to 48%. The inhibition at […] (Homo sapiens, U-937, U937, total 20 H, STSP 16 H, MTX 4 H, MTX 31 nM, STSP nM: 200, 100, 50, 25, 12.5, 6.25, 0) stood at 43%. For the same compound, for the setting “Homo sapiens, U-937, U937, total 20 H, STSP 16 H, MTX 4 H, MTX 63 nM, STSP nM: 200, 100, 50, 25, 12.5, 6.25, 0”, the inhibition at […] worked out at 47%. Moreover, where the note is “Homo sapiens, U-937, U937, total 20 H, STSP 16 H, MTX 4 H, MTX 125 nM, STSP nM: 200, 100, 50, 25, 12.5, 6.25, 0”, the inhibition at 0.125 µM is 52%. For the same compound, the inhibition at […] (Homo sapiens, U-937, U937, total 20 H, STSP 16 H, MTX 4 H, MTX 250 nM, STSP nM: 200, 100, 50, 25, 12.5, 6.25, 0) was determined as 57%. Also, the inhibition at 0.5 µM (Homo sapiens, U-937, U937, total 20 H, STSP 16 H, MTX 4 H, MTX 500 nM, STSP nM: 200, 100, 50, 25, 12.5, 6.25, 0) was 62%. The inhibition at 1 µM (Homo sapiens, U-937, U937, total 20 H, STSP 16 H, MTX 4 H, MTX 1000 nM, STSP nM: 200, 100, 50, 25, 12.5, 6.25, 0) amounted to 61%. Moreover, the Combined results ratio (total 20 H, STSP 16 H, MTX 4 H, MTX 4 nM, STSP nM: 200, 100, 50, 25, 12.5, 6.25, 0) worked out at 1.0. Also, the Combined results ratio (total 20 H, STSP 16 H, MTX 4 H, MTX 8 nM, STSP nM: 200, 100, 50, 25, 12.5, 6.25, 0) is recorded as 1.0. Further, the Combined results ratio (total 20 H, STSP 16 H, MTX 4 H, MTX 16 nM, STSP nM: 200, 100, 50, 25, 12.5, 6.25, 0) is given as 1.0. For the setting “total 20 H, STSP 16 H, MTX 4 H, MTX 31 nM, STSP nM: 200, 100, 50, 25, 12.5, 6.25, 0”, the Combined results ratio turned out to be 1.0. For the same compound, the Combined results ratio (total 20 H, STSP 16 H, MTX 4 H, MTX 63 nM, STSP nM: 200, 100, 50, 25, 12.5, 6.25, 0) stood at 1.0. Further, where the note is “total 20 H, STSP 16 H, MTX 4 H, MTX 125 nM, STSP nM: 200, 100, 50, 25, 12.5, 6.25, 0”, the Combined results ratio was determined as 1.0. For the same compound, the Combined results ratio (total 20 H, STSP 16 H, MTX 4 H, MTX 250 nM, STSP nM: 200, 100, 50, 25, 12.5, 6.25, 0) worked out at 1.0. The Combined results ratio (total 20 H, STSP 16 H, MTX 4 H, MTX 500 nM, STSP nM: 200, 100, 50, 25, 12.5, 6.25, 0) amounted to 1.0. For the same compound, under “total 20 H, STSP 16 H, MTX 4 H, MTX 1000 nM, STSP nM: 200, 100, 50, 25, 12.5, 6.25, 0”, the Combined results ratio came out at 1.0.
For `Nc1ccn([C@@H]2O[C@H](CO)[C@@H](O)[C@@H]2O)c(=O)n1` [ara-C, 1-β-D-arabinofuranosylcytosine], the “Potentiation of DNA damage by STSP as RA” value is “proved successful in potentiating DNA damage by STSP”.
On to `Cn1c(=O)c2c(ncn2C)n(C)c1=O` [caffeine], for which the “Interaction with STSP (differential O/S plot)” value (caffeine 0.1-2 mM) is “strongly antagonized the action of STSP”.
For the compound `N.N.[Cl][Pt][Cl]` [cisplatin], the “combined results ratio, Cisplatin only” value runs as follows: (Cisplatin only 16 H, Cisplatin uM by row: r7 *****, r8 *****, r9 *****, r10 5.00, r11 2.50, r12 1.25) 1.0; (total 19 H, cisplatin 16 H, no STSP, cisplatin uM by row: r7 80, r8 40, r9 20, r10 10, r11 5, r12 2.5) 1.0.

(Values after US6455593B1, “Method of dynamic retardation of cell cycle kinetics to potentiate cell damage” (priority 1995, dated 2002).)
